Experimental data published in ChEMBL document CHEMBL4406799, “Identification of benzo[cd]indol-2(1H)-ones as novel Atg4B inhibitors via a structure-based virtual screening and a novel AlphaScreen assay” (Eur J Med Chem, 2019).
Activity calls are given as the source filed them. The rule behind the calls is not given here.

Columns and labels:
Cysteine protease ATG4B [1] = target: T1, Cysteine protease ATG4B (Homo sapiens, UniProt Q9Y4P1); assay: Inhibition of ATG4B (unknown origin) using N-(His)6-LC3B(L123C)Biotin as substrate preincubated for 30 mins and measured after 1 hr by AlphaScreen method
T1 sequence (Q9Y4P1 whole entry): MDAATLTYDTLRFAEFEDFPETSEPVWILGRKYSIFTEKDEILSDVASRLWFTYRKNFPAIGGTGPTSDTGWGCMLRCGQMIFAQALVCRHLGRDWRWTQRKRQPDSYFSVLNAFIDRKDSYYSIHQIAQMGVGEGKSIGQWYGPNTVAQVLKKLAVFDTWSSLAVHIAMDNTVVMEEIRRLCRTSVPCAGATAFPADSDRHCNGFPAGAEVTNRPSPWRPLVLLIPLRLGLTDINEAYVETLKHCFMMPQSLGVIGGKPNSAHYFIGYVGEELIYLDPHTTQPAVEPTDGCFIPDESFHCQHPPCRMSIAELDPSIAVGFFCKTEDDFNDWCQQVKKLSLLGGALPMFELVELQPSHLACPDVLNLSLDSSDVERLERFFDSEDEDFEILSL

Cysteine protease ATG4B [2] = target: T1, Cysteine protease ATG4B; assay: Inhibition of ATG4B (unknown origin) using N-(His)6-LC3B(L123C) as substrate preincubated for 1 hr followed by substrate addition and measured after 30 mins MS-based analysis
Papain (Carica papaya) = target: T2, Papain (Carica papaya) (UniProt P00784); assay: Inhibition of papaya papain at 50 uM using L-pyroglutamyl-L-phenylalanyl-L-leucine-p-nitroanilide as substrate measured after 30 mins
T2 sequence (whole entry): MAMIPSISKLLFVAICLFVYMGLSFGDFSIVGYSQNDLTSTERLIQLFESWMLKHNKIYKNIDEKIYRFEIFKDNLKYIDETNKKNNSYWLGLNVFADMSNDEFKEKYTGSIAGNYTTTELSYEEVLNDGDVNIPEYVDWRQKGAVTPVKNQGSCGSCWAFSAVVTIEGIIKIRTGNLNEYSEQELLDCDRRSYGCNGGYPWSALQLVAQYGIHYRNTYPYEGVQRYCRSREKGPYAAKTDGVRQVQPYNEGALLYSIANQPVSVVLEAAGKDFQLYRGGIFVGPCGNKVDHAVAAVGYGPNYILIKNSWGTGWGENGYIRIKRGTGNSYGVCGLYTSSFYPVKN

HT-29 [3] = conditions: Homo sapiens, 100 to 200 uM
Description: Inhibition of autophagic flux in human HT-29 cells assessed as increase in LC3-2 expression at 100 to 200 uM after 16 hrs by Western blot analysis

HT-29 [4] = conditions: Homo sapiens, 100 to 200 uM; remark: listed apart in the source
Description: Inhibition of autophagic flux in human HT-29 cells assessed as reduction in p62 degradation at 100 to 200 uM after 16 hrs by Western blot analysis

HT-29 [5] = assay: Antiproliferative activity against human HT-29 cells assessed as reduction in cell viability at 75 uM in presence of oxaliplatin after 24 to 72 hrs by MTT assay; assay type: functional, cell-based
Cysteine protease ATG4B [6] = target: T1, Cysteine protease ATG4B; assay: Inhibition of recombinant ATG4B (unknown origin) expressed in Escherichia coli BL21(DE3) using LC3-PLA2 as substrate by fluoroscence based assay

| SMILES | IC50 (Cysteine protease ATG4B [2]) | IC50 (Cysteine protease ATG4B [1]; read-out: IC50) | inhibition (Papain (Carica papaya)) | further results |
| --- | --- | --- | --- | --- |
| O=C1NC(=O)c2cc(NCC(O)CCl)cc3cccc1c23 (stereo unspecified) | – | – | – | IC50 (Cysteine protease ATG4B [1]): Not Active |
| O=C1Nc2cccc3cc(NCC(O)CCl)cc1c23 (stereo unspecified) | – | – | inactive | – |
| C=CCCC(O)CNc1cc2c3c(cccc3c1)NC2=O (stereo unspecified) | – | – | – | IC50 (Cysteine protease ATG4B [1]): Not Active |
| Oc1ccc(C2=Nc3cccc4cccc(c34)N2)cc1 | 150 µM | 300 µM | – | – |
| O=c1oc2c(O)c(O)cc3c(=O)oc4c(O)c(O)cc1c4c23 [ELLAGIC ACID] | – | – | – | IC50 (Cysteine protease ATG4B [6]): 3 µM |
| O=C(N[C@@H](Cc1ccccc1)C(=O)CCl)OCc1ccccc1 | – | – | Active | – |

Second part, led by results:

| IC50 (Cysteine protease ATG4B [2]) | IC50 (Cysteine protease ATG4B [1]; read-out: IC50) | inhibition (Papain (Carica papaya)) | SMILES | further results |
| --- | --- | --- | --- | --- |
| 280 µM | > 300 µM | – | O=C1Nc2ccc(NCC(O)CCl)c3cccc1c23 (stereo unspecified) | – |
| 215 µM | 235 µM | – | CCCCC(O)CNc1cc2c3c(cccc3c1)NC2=O (stereo unspecified) | – |
| – | 315 µM | – | O=C(/C=C1/Nc2cc(Cl)c(Cl)cc2NC1=O)N/N=C/c1ccccc1O | – |
| – | – | inactive | CCCCC(O)CNc1cc2c3c(cccc3c1)C(=O)N2 (stereo unspecified) | inhibition (HT-29 [3]): Active; inhibition (HT-29 [4]): Active; Activity (HT-29 [5]): Active |
